“Also recorded” adds a separate entry of the source. Where two headings read alike, the source gives them in different places.
Tests used:
[1] = tested on: murine sperm; experiment: Protein tyrosine phosphorylation / capacitation of sperm; assay type: cell-based, mouse
[2] = tested on: GM1 localization in murine sperm; assay type: cell-based, mouse
[3] = tested on: sterols in sperm plasma membrane; conditions: exposure of sperm to sterol acceptor; cited from earlier work
[4] = incubation with the stimulus alone
[5] = Fixative A: 0.004% paraformaldehyde, mouse sperm
[6] = Fixative B: 1.25% paraformaldehyde, 2.5% glutaraldehyde, 100 mM sodium cacodylate, 0.5 mM CaCl2
[7] = Fixative C: 4% paraformaldehyde, 0.1% glutaraldehyde, 1 mM CaCl2

[Ca+2] [Ca^++]
ability to cause tyrosine phosphorylation or capacitation [1, 4]: not sufficient

O=C([O-])O.[Na+] [NaHCO3]
GM1 staining localization after exposure to stimulus [2]: staining was observed in the apical acrosome and post-acrosomal region
sperm with Pattern D (diffuse) [2]: 3.2%
ability to cause tyrosine phosphorylation or capacitation [1]: not sufficient

CC(=O)[C@H]1CC[C@H]2[C@@H]3CCC4=CC(=O)CC[C@]4(C)[C@H]3CC[C@]12C [progesterone]
GM1 staining localization after induction of acrosomal exocytosis ([2]; after capacitating incubation (bicarbonate and 2-OHCD), then progesterone 10 μg/ml for 10 minutes): a signal over the apical acrosome alone; also recorded: concentrated in the region of the apical acrosome

(2-hydroxypropyl)-β-cyclodextrin [2-OHCD]
shift in CTb labeling pattern (FIG. 3/FIG. 4 patterns A, B, C) ([2]; 45 minute incubation, 10 mM HCO3− or 3 mM 2-OHCD, 0.004% paraformaldehyde): shifts to pattern “C.”
sperm with Pattern A (acrosomal) [2, 5]: Ns
sperm with Pattern AA/PA (apical acrosome and post-acrosomal) [2, 5]: 28.8%
sperm with Pattern D (diffuse) [2, 5]: 40.4%
sperm with Pattern PA (post-acrosomal) [2, 5]: 37.9%
sperm with Pattern D (diffuse) ([2]; Fixative A: 0.004% paraformaldehyde, mouse sperm, listed as cyclodextrin): approximately 40%
sperm with Pattern A (acrosomal) [2, 6]: 41.8%
sperm with Pattern AA/PA (apical acrosome and post-acrosomal) [2, 6]: 0%
sperm with Pattern D (diffuse) [2, 6]: 0%
sperm with Pattern PA (post-acrosomal) [2, 6]: 58.2%
sperm with Pattern A (acrosomal) [2, 7]: 80.5%
sperm with Pattern AA/PA (apical acrosome and post-acrosomal) [2, 7]: 0.2%
sperm with Pattern D (diffuse) [2, 7]: 0%
sperm with Pattern PA (post-acrosomal) [2, 7]: 19.4%
GM1 staining localization after exposure to stimulus ([2]; sperm fixed with 0.004% paraformaldehyde): a signal in the plasma membrane overlying the acrosome as well as in the post-acrosomal region
effect on filipin-sterol complexes (FSC) [3]: loss of most FSC from the plasma membrane overlying the acrosome
ability to cause tyrosine phosphorylation or capacitation [1, 4]: not sufficient

bovine serum albumin [BSA]
effect on filipin-sterol complexes (FSC) [3]: loss of most FSC from the plasma membrane overlying the acrosome

Reference: US8367313B2, “Method of determining sperm capacitation” (Cornell University, priority 2003, dated 2013)
